In US20250327028A1, “ENGINEERED PLATELETS AS TARGETED PROTEIN DEGRADERS” (Wisconsin Alumni Research Foundation, priority 2024, published 2025):

Legend:
[1] = target: T1, BRD4 (Mus musculus, UniProt Q9ESU6); assay: Immunoblot analysis of BRD4 degradation in 4T1 cells after free HAC treatment; type: cell-based, murine; conditions: 4T1 cells
T1 construct: endogenous in cells; host or cells: 4T1
From the text: (§1) Immunoblot analysis: Immunoblot analysis was used to evaluate the expression of BRD4, HSP90, HSP90a, and PD-L1 in 4T1, WT MDA-MB-231, HSP90α-KO MDA-MB-231 or PEA-10 cells after various treatments and also served as the detection method for IP or co-IP experiments. The procedures for preparing IP or co-IP samples were indicated in the relevant experimental parts.
(§2) Sample preparation for various cancer cells after free HAC treatment: Various cells, including 4T1, WT MDA-MB-231, HSP90α-KO MDA-MB-231, or PEA-10 cells, were seeded in 6-well culture plates with a density of 5×10^4 cells in each well and cultured for 24 h. Then, if HAI pretreatment was performed, the cells were incubated in the HAI-containing blank medium at different concentrations for 2 h and washed with PBS twice before the following treatments. The medium in the corresponding wells was replaced with 1 mL of blank medium containing the DMSO vehicle, HACs, or the combinations of various free ligands at the predetermined concentrations. After incubation for the indicated time points, cells were washed with PBS and lysed on ice with the relevant lysis buffer containing PMSF (1 mM) and the phosphatase inhibitor cocktail for 30 min. As for the conditioned medium (CM), the culturing complete medium of the corresponding cancer cells in each well was collected after 24-h incubation and subjected to centrifugation at 2000 rpm for 5 min to obtain the supernatant. The filtrate of the supernatants was collected following filtration over a 0.45 μm filter, serving as the CM. Regarding the cell samples for BRD4 detection, the lysis buffer containing HEPES-KOH (pH=7.5, 10 mM), NaCl (500 mM), EDTA (5 mM), NP-40 (1%), and SDS (0.1%) was used with the indicated PMSF and phosphatase inhibitor cocktail. As for PD-L1 detection, RIPA buffer (Thermo Fisher Scientific/J63306.AP) was used with the indicated PMSF and phosphatase inhibitor cocktail.
General procedures for immunoblot analysis: After a 30-min lysis, the lysates were centrifuged at 10,000 g for 10 minutes at 4° C., and the corresponding supernatants were collected, followed by quantification of the total proteins in the supernatant through the BCA assay. Afterward, the proteins in the supernatant were mixed with the loading buffer and heated at 95° C. for 15 min. Equal amounts of proteins from different samples ([…]) were loaded into the Bis-Tris gel formulated with Bis-Tis buffer, 30% acrylamide/Bis, 10% ammonium persulfate (APS) solution, and TEMED. The separated proteins were transferred to polyvinylidene fluoride (PVDF) membranes before the membranes were blocked with 5% nonfat milk in PBS-T. Next, the PVDF membranes were incubated with primary antibodies overnight at 4° C., if necessary, followed by the incubation with the goat-anti-rabbit IgG H & L (HRP) secondary antibodies at room temperature for 2 h. Finally, the bands were treated with electrochemiluminescence (ECL) western blot substrate, detected by the iBright™ imaging system and quantified with ImageJ software. 8% Bis-Tris gels were used for BRD4 detection, and 10% gels were adopted to analyze PD-L1.

[2] = target: T2, PD-L1 (Mus musculus, UniProt Q9EP73); assay: Immunoblot analysis of PD-L1 degradation in 4T1 cells after eDePLT treatment; type: cell-based, murine; conditions: 2-h HAI pretreatment, 1×10^8 eDePLTs 8 h
T2 construct: endogenous in cells; host or cells: 4T1
Experimental: as §1
(§3) Sample preparation for 4T1 cells after DePLT treatment: 4T1 cells were seeded in 6-well culture plates with a density 5×10^4 cells in each well and cultured for 24 h. The engineered platelets, including iDePLT and eDePLT, were generated by incubating the fresh platelets in PBS containing iHAC or eHAC at 20 μM for 2 h. The fresh nPLT was used as the control. Then, if HAI pretreatment was performed, the cells were incubated in the HAI-containing blank medium at different concentrations for 2 h and washed with PBS twice before the following treatments. […]
(§4) General procedures for immunoblot analysis: After a 30-min lysis, the lysates were centrifuged at 10,000 g for 10 minutes at 4° C., and the corresponding supernatants were collected, followed by quantification of the total proteins in the supernatant through the BCA assay. […] Finally, the bands were treated with electrochemiluminescence (ECL) western blot substrate, detected by the iBright™ imaging system and quantified with ImageJ software. […]

[3] = test system: WT MDA-MB-231 cells; assay: In-gel fluorescence detection of NA-647 internalization in WT MDA-MB-231 cells; type: cell-based, human; conditions: WT MDA-MB-231, 2-h HAI at various concentrations prior to HAC-B 5 μM 4 h
Experimental: In-gel fluorescence detection: In-gel fluorescence was mainly used to investigate the internalization of NeutrAvidin™_647 in HAC-B-treated cancer cells.
Sample preparation: 4T1 or WT MDA-MB-231 cells were seeded in 6-well culture plates with a density of 5×10^4 cells in each well and cultured for 24 h. If HAI pretreatment was performed, the cells were incubated in the HAI-containing blank medium at different concentrations for 2 h and washed with PBS twice before the following treatments. Then, the cells were treated with free HAC-B or the combinations of various ligands at the indicated concentrations for the predetermined time points. Next, the drug-containing medium was removed, and PBS was used to wash the cells twice, followed by incubating the cells in the blank medium containing NeutrAvidin™ DyLight™ 650 (NA-647, Invitrogen/84607) at 0.5 μM for 1 h. Finally, the cells were washed with PBS and lysed on ice with the RIPA buffer containing PMSF (1 mM) and the phosphatase inhibitor cocktail for 30 min. A s for the 4T1 cells cotreated with NA-647 and HAC-B, the cells after 24-h incubation were treated with the blank medium containing NA-647 at 0.5 μM and HAC-B at various concentrations for 2 h before cell lysis.
In-gel fluorescence imaging: After 30-min lysis, the lysates were centrifuged at 10,000 g for 10 minutes at 4° C., and the corresponding supernatants were collected, followed by quantification of the total proteins in the supernatant through the BCA assay. Afterward, the proteins in the supernatant were mixed with ¼ volume of 5× sample buffer formulated by Tris-HCl (pH 6.8, 312.5 mM), sucrose (25%), SDS (10%), bromophenol blue (0.025%), and dithiothreitol (DTT, 250 mM). After incubation for 1 h at room temperature, equal amounts of proteins from different samples ([…] per lane) were loaded into the 12% Bis-Tris gel. After the proteins were separated, the gels were subjected to fluorescence imaging with the ChemiDoc™ MP imaging system (Bio-Rad).

[4] = target: T1, BRD4; assay: Immunoblot analysis of BRD4 degradation in 4T1 cells after DePLT or PMP treatment; type: cell-based, murine; conditions: 2-h HAI pretreatment, 1×10^8 iDePLTs 12 h
Experimental: as §1, §3, §4

[5] = target: T3, BRD4 (Homo sapiens, UniProt O60885); assay: Immunoblot analysis of BRD4 degradation in WT MDA-MB-231 cells after free HAC treatment; type: cell-based; conditions: lower or higher effective concentrations, 12 h
T3 construct: endogenous in cells; host or cells: WT MDA-MB-231 (ATCC)
From the text: as §1
as §2, with “Regarding the cell samples for BRD4 detection, the lysis buffer containing HEPES-KOH (pH=7.5, 10 mM), NaCl (500 mM), EDTA (5 mM), NP-40 (1%), and SDS (0.1%) was used with the indicated PMSF and phosphatase inhibitor cocktail. As for PD-L1 detection, RIPA buffer (Thermo Fisher Scientific/J63306.AP) was used with the indicated PMSF and phosphatase inhibitor cocktail.” left out
as §4

T2 sequence (Q9EP73 19-290): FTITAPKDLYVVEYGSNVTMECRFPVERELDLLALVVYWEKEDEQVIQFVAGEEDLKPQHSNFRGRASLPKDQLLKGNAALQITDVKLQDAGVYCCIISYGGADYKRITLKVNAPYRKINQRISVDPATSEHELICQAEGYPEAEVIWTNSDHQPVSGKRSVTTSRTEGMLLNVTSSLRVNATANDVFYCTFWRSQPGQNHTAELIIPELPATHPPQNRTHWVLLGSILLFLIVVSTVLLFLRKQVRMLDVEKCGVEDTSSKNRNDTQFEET

Structure (SMILES) | BRD4 degradation by iHAC after HAI pretreatment ([1]; 2-h HAI pretreatment at various concentrations, then iHAC 10 μM 12 h) | PD-L1 degradation by eDePLT after HAI pretreatment of target cells [2] | NA-647 uptake by HAC-B after HAI preincubation [3] | BRD4 downregulation by iDePLT after HAI pretreatment of target cells [4] | BRD4 degradation compared to iHAC ([1]; lower or higher effective concentrations, 12 h) | BRD4 degradation compared to iHAC [5]
Nc1ncnc2c1nc(Sc1cc3c(cc1I)OCO3)n2CCCNCc1cccc(S(=O)(=O)F)c1 [HAI, 3-(((3-(6-amino-8-((6-iodobenzo[d][1,3]dioxol-5-yl)thio)-9H-purin-9-yl)propyl)amino)methyl)benzenesulfonyl fluoride] | inferior BRD4 degradation efficacy | failed to rescue the PD-L1 degradation | largely compromised NA-647 uptake | failed to relieve BRD4 downregulation |  | 
Cc1sc2c(c1C)C(c1ccc(Cl)cc1)=N[C@H](CC(=O)NCc1cn(CCCC(=O)N(CC#N)S(=O)(=O)c3ccc(C(=O)NCCCn4c(Sc5cc6c(cc5I)OCO6)nc5c(N)ncnc54)cc3)nn1)c1nnc(C)n1-2 [iHACepi, (R)—N-(3-(6-amino-8-((6-iodobenzo[d][1,3]dioxol-5-yl)thio)-9H-purin-9-yl)propyl)-4-(N-(4-(4-((2-(4-(4-chlorophenyl)-2,3,9-trimethyl-6H-thieno[3,2-f][1,2,4]triazolo[4,3-a][1,4]diazepin-6-yl)acetamido)methyl)-1H-1,2,3-triazol-1-yl)butanoyl)-N-(cyanomethyl)sulfamoyl)benzamide] |  |  |  |  | almost no substantial BRD4 degradation | almost no substantial BRD4 degradation
